Consider one compound from article PMC7714071, “Interaction of amyloid beta with humanin and acetylcholinesterase is modulated by ATP” (FEBS Open Bio, 2020).

For this assay, the system named is HN-Aβ complex (A549 cell-conditioned media). Put plainly: ELISA, HN found in a complex with Aβ in A549 cell-conditioned media. The assay is classed as binding, human. To be noted: 6E10 or 82E1 on wells, relative to samples without ATP, three experiments in triplicate, Fig. 5A. Here is the method:
Human NSCLC cell lines, A549 (ATCC CCL‐185) and H1299 (ATCC CRL‐5803), were purchased from the American Type Culture Collection (ATCC, Manassas, VA, USA). Cells were seeded as we reported earlier in 5 mL HyClone Dulbecco's modified Eagle's medium/nutrient mixture F‐12 (DMEM/F12) (GE Healthcare Life Sciences, Pittsburgh, PA, USA), supplemented with 10% Fetalgro bovine growth serum (FBS; RMBIO, Missoula, MT, USA), 50 U·mL^−1 penicillin, and […] streptomycin (Invitrogen, Life Technologies, Carlsbad, CA, USA) in 25‐cm^2 tissue culture flasks, and allowed to grow overnight in an incubator at 37 °C, 95% humidity, and 5% CO2. The cells were counted after trypan blue staining, with a hemocytometer.
ELISAs were carried out as we previously reported. […] TBST was then used to wash the wells 4× before proceeding in one of two ways: (a) biotinylated samples were analyzed by adding 100 µL streptavidin–HRP conjugate in TBST (1 : 2500 dilution) to the samples followed by incubation for 3 h at RT on a shaker, or (b) samples without biotin were analyzed by adding 100 µL TBST containing the primary antibody as per the manufacturer's recommendation, incubating for 3 h at RT on a shaker, followed by washing the wells 4× with TBST. […] The reaction was stopped with 100 µL 2 M H2SO4 after incubating at RT for 0.5–15 min, resulting in a yellow color change, measured by absorbance at 450 nm. […]
In general terms: ELISA stands for enzyme-linked immunosorbent assay.

Take `Nc1ncnc2c1ncn2[C@@H]1O[C@H](COP(=O)(O)OP(=O)(O)OP(=O)(O)O)[C@@H](O)[C@H]1O` [ATP, Adenosine triphosphate]: the “increase in the amount of HN bound to Aβ” value by setting is: (100 μM ATP) ~ 1.85 fold; (1 mM ATP) ~ 2.5 fold.
